Test results as given in paper PMC3878165 (Bioorganic & Medicinal Chemistry Letters, 2013).

Biological target: SARS-CoV 3CLpro (Severe acute respiratory syndrome coronavirus, UniProt P0C6U8)
Type: biochemical

Compound | 3CLpro activity in words | loss in inhibition/activity
O=C(Nc1ccc(N(Cc2ccsc2)C(=O)Cn2nnc3ccccc32)cc1)c1ccccc1 [16h] | lack of activity | –
O=C(Cn1nnc2ccccc21)N(Cc1ccsc1)c1ccc(NCc2ccccc2)cc1 [16k] | potency comparable to probe ML300 | –
CC(C)(C)NC(=O)C(c1ccsc1)N(C(=O)Cn1nnc2ccccc21)c1ccc(NC(=O)C(C)(C)C)cc1 (centres unmarked) [13e] | – | three-fold
CC(C)COC(=O)Nc1ccc(N(C(=O)Cn2nnc3ccccc32)C(C(=O)NC(C)(C)C)c2ccsc2)cc1 (centres unmarked) [13l] | weak or inactive | –
O=C(Nc1ccc(N(Cc2ccsc2)C(=O)Cn2nnc3ccccc32)cc1)C1CCCCC1 [16g] | weak inhibitor | –
CC(=O)Nc1ccc(N(C(=O)Cn2nnc3ccccc32)C(C(=O)NC(C)(C)C)c2ccsc2)cc1 (centres unmarked) [13a] | moderate micromolar activity | –
COc1ncc(-c2ccc(N(Cc3ccsc3)C(=O)Cn3nnc4ccccc43)cc2)cn1 [17e] | micromolar activity | –
CC(C)(C)NC(=O)C(c1ccsc1)N(C(=O)Cn1nnc2ccccc21)c1ccc(NC(=O)C2CCCCC2)cc1 (centres unmarked) [13h] | loss of inhibition | –
CC(C)(C)NC(=O)C(c1ccsc1)N(C(=O)Cn1nnc2ccccc21)c1ccc(NS(C)(=O)=O)cc1 (centres unmarked) [13b] | – | three-fold
CNc1ccc(N(Cc2ccsc2)C(=O)Cn2nnc3ccccc32)cc1 [16j] | potency comparable to probe ML300 | –
CC(C)(C)NC(=O)C(c1ccsc1)N(C(=O)Cn1nnc2ccccc21)c1ccc(NC(=O)C2CC2)cc1 (centres unmarked) [13f] | loss of inhibition | –
